According to article PMC5626944 (Frontiers in Pharmacology, 2017):
Read-outs that look alike come from different tables or passages of the source.

What was measured:
Adrenergic, Alpha 1A = tested on: T1, Adrenergic, Alpha 1A; experiment: NovaScreen competition binding; conditions: 1 µM
T1 construct: PerkinElmer – Caliper Life Sciences (NovaScreen service)

Serotonin, 5HT2A = experiment: NovaScreen competition binding; conditions: 1 µM
α4β2* nAChRs = α4β2* nAChRs (Mus musculus, UniProt O70174+Q9ERK7); experiment: biochemical; type: biochemical; conditions: for Emax: relative to nicotine; for EC50: read-out: Neurotransmitter release EC50
Method: (§1) Regions of interest were dissected from fresh mouse brains and homogenized in ice-cold isotonic sucrose (0.32 M), buffered with HEPES (5 mM, pH 7.5). The suspension was centrifuged at 12,000 × g for 20 min.
Superfusion proceeded at 0.7 mL/min for 10 min before stimulation with agonist for 20 s. Selected aliquots were perfused with α-CtxMII (50 nM) for 3 min immediately before stimulation. […] Fractions (∼0.1 mL) were collected into 96-well plates at 10 s intervals for 4 min (starting ∼1 min before stimulation).

Kinase, Protein, PKA (h) = tested on: T2, Kinase, Protein, PKA (h); experiment: NovaScreen enzyme assay; type: biochemical, human; conditions: 1 µM
T2 construct: PerkinElmer – Caliper Life Sciences (NovaScreen service)

[1] = tested on: Glycine, Strychnine-sensitive; experiment: NovaScreen competition binding; conditions: 1 µM
WT mice = experiment: Hot plate assay; type: in vivo, mouse; conditions: 0.3 mg/kg ip each, 55°C hot plate, p < 0.05
Method: Mice were again habituated to the experimental room for ≥2 h prior to testing. […] This apparatus is a heated metal plate, maintained at 55°C, enclosed by a clear acrylic plastic cylinder (∼10 cm in diameter), within which the mouse is free to move. […] If the mouse urinates during the assay, it is immediately removed from the hot plate. The time that the mouse remains on the hot plate prior to showing signs of discomfort is recorded. Doses were administered using a Latin-square crossover design. A day without testing occurred between each test.

α6-GFPβ2DMβ3 nAChRs = molecular target: T3, α6-GFPβ2DMβ3 nAChRs (Mus musculus, UniProt Q9ERK7+Q9R0W9, L349M/R365A/R366A/R368A); experiment: Whole-cell patch-clamp recordings in transfected neuro-2a cells; type: cell-based
T3 construct: expressed in transfected cells; host or cells: mouse neuroblastoma neuro-2a (ATCC CCL-131)
Method: (§2) Cells were transfected with 500 ng of: α4-GFP and β2DM or α6-GFP, β2DM, and β3 nAChR subunits.
(§3) For the patch-clamp experiments, we used mouse neuro-2a cells. […] Transfected cells displaying eGFP fluorescence were identified for patching using an inverted epifluorescence microscope. […] The resistance of the patch pipettes was 2–4 MΩ. The extracellular solution contained (in mM): 140 NaCl, 5 KCl, 2 CaCl2, 1 MgCl2, 10 HEPES, and 10 glucose (320 mOsm, pH set to 7.3 with Tris-base). […] The data were sampled at 10 kHz and low-pass filtered at 2 kHz prior to digitization. All experiments were performed at 24°C and the recording chamber was continually perfused with extracellular solution. To avoid receptor desensitization by repetitive agonist application, agonists were applied at intervals ≥3 min. An Octaflow II superfusion system (ALA Scientific Instruments) was used to apply the agonist for concentration-response studies. Applications were 500 ms at 6 psi. […] Following the collection of the full concentration range an additional test pulse was repeated to assess accumulated desensitization.
(§4) Data were fit to a single Hill term using Origin 10 software. Data are expressed as mean ± SEM.

α4-GFPβ2DM nAChRs = molecular target: T4, α4-GFPβ2DM nAChRs (Mus musculus, UniProt O70174+Q9ERK7, L349M/R365A/R366A/R368A); experiment: as above; type: cell-based; conditions: α4β2 single component, transfected in Neuro-2a cells
T4 construct: expressed in transfected cells; host or cells: mouse neuroblastoma neuro-2a (ATCC CCL-131)
Method: as §2, §3, §4

Adenosine, A1 = tested on: T5, Adenosine, A1; experiment: NovaScreen competition binding; conditions: 1 µM
T5 construct: PerkinElmer – Caliper Life Sciences (NovaScreen service)

Endothelin, ET-A (h) = tested on: T6, Endothelin, ET-A (h); experiment: NovaScreen competition binding; set-up: species or system human; conditions: 1 µM
T6 construct: PerkinElmer – Caliper Life Sciences (NovaScreen service)

Angiotensin II, AT1 (h) = tested on: T7, Angiotensin II, AT1 (h); experiment: NovaScreen competition binding; set-up: species or system human; conditions: 1 µM
T7 construct: PerkinElmer – Caliper Life Sciences (NovaScreen service)

[2] = tested on: Nicotinic, Neuronal (α-BnTx insensitive); experiment: NovaScreen competition binding; conditions: 1 µM
From the text: (§5) Assays included the nicotinic drug [^3H]epibatidine binding to α-bungarotoxin-insensitive nAChRs, the 5-HT3 inhibitor [N-methyl-^3H]GR65630 to mouse receptors in N1E-115 cells, and human receptors expressed in a clonal cell line. Other assays included monoamine oxidase A, monoamine oxidase B, 5-HT transporter, norepinephrine transporter, and dopamine transporter, as well as other. G-protein-coupled receptors, ion channels, enzymes, and transporters.

[3] = tested on: Potassium Channel, ATP-Sensitive; experiment: NovaScreen competition binding; conditions: 1 µM
From the text: as §5

[4] = tested on: Potassium Channel, I[Kr] (hERG) (h); experiment: NovaScreen competition binding; set-up: species or system human; conditions: 1 µM
[5] = tested on: hERG potassium channel (IKr); experiment: NovaScreen competition binding; set-up: species or system human; conditions: human, probe [3H]Astemizole, [3H]Astemizole
[6] = tested on: Norepinephrine Transporter; experiment: NovaScreen competition binding; conditions: 1 µM
[7] = tested on: T8, GABA A, BDZ, alpha 1 site; experiment: NovaScreen competition binding; conditions: 1 µM
T8 construct: PerkinElmer – Caliper Life Sciences (NovaScreen)

Serotonin, 5HT3 = tested on: T9, Serotonin, 5HT3; experiment: NovaScreen competition binding; set-up: species or system mouse; conditions: 1 µM
T9 construct: endogenous in cells; host or cells: N1E-115 (mouse neuroblastoma)
From the text: as §5

α4β2 (α5KO) nAChRs = molecular target: T10, α4β2 (α5KO) nAChRs (Mus musculus, UniProt O70174+Q9ERK7); experiment: 86Rb+ efflux from α5KO thalamic and cortical synaptosomes; type: biochemical
T10 construct: from tissue; host or cells: thalamic and cortical synaptosomes of α5KO mice
Method: as §1

Histamine, H1 = tested on: T11, Histamine, H1; experiment: NovaScreen competition binding; conditions: 1 µM
T11 construct: PerkinElmer – Caliper Life Sciences (NovaScreen)

Sodium, Site 2 = experiment: NovaScreen competition binding; conditions: 1 µM

Chain of α4β2* nAChRs (O70174 31-629): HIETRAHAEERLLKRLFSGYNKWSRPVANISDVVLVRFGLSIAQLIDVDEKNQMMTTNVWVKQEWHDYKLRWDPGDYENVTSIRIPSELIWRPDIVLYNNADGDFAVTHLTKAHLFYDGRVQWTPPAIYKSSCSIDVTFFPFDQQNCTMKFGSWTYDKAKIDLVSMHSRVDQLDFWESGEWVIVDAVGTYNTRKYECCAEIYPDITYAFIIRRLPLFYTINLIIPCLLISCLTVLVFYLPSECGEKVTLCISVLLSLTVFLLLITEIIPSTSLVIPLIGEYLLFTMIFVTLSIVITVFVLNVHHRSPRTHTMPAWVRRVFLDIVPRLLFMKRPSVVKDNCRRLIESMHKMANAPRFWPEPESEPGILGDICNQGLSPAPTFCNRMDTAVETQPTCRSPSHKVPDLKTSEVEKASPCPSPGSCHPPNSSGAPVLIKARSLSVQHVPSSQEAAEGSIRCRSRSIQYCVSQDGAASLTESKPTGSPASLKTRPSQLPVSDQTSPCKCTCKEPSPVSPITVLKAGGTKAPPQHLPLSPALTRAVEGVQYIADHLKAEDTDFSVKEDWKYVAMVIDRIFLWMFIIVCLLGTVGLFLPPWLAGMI
Chain of α4β2* nAChRs (Q9ERK7 26-501): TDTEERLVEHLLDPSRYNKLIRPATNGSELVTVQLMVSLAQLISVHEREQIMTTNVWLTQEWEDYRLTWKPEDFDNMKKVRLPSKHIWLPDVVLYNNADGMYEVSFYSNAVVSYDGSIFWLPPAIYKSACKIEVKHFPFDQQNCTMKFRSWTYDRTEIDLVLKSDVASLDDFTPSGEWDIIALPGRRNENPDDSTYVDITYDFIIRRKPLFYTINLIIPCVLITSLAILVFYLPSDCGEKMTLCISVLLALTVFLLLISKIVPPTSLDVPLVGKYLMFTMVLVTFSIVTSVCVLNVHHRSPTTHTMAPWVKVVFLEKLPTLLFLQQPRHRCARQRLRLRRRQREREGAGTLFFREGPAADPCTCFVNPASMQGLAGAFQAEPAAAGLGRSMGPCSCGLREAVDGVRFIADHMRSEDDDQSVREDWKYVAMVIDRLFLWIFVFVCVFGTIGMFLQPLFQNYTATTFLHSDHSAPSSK
T10 sequence (O70174 31-629): as the sequence (O70174 31-629) above
T10 sequence (Q9ERK7 26-501): as the sequence (Q9ERK7 26-501) above
T3 sequence (Q8BMN3 31-464, stated change not applied): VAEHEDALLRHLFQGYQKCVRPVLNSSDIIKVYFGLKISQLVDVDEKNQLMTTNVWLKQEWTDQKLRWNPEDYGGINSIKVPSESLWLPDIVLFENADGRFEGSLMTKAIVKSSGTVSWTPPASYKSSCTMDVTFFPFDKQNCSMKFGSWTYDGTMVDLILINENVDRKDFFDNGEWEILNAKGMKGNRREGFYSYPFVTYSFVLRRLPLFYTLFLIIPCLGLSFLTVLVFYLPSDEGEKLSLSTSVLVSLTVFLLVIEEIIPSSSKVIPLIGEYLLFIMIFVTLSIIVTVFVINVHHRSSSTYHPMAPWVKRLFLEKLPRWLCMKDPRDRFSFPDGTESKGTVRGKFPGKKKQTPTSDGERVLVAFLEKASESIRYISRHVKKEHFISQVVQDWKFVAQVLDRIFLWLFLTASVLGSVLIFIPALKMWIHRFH
T3 sequence (Q9R0W9 31-494): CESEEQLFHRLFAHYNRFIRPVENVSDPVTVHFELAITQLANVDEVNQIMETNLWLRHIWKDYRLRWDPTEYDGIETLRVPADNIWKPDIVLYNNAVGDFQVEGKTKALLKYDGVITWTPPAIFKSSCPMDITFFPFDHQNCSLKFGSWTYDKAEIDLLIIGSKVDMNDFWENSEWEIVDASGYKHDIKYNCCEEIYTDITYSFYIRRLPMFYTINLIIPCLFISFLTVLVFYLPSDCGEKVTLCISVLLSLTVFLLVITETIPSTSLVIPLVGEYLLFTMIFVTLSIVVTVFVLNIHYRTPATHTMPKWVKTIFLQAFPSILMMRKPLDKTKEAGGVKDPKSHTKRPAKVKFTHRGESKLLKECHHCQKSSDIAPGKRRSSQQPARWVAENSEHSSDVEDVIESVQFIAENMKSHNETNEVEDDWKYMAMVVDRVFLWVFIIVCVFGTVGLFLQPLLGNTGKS
T3 sequence (Q9ERK7 26-501 L349M/R365A/R366A/R368A): as the sequence (Q9ERK7 26-501) above, with L324M, R340A, R341A, R343A counted along it
T4 sequence (O70174 31-629): as the sequence (O70174 31-629) above
T4 sequence (Q9ERK7 26-501 L349M/R365A/R366A/R368A): as the sequence (Q9ERK7 26-501) above, with L324M, R340A, R341A, R343A counted along it

## C1=C(/c2cncnc2)CCCNCC/1 [TC299423, (E)-5-(pyrimidin-5-yl)-1,2,3,4,7,8-hexahydroazocine]
Adrenergic, Alpha 1A
  Hit: FALSE
Adrenergic, Alpha 1A; [3H]-7-MeOxy-Prazosin
  Inhibition: -0.05%
Serotonin, 5HT2A
  Hit: FALSE
Serotonin, 5HT2A; [3H]Ketanserin
  Inhibition: 12.43%
α4β2* nAChRs; read-out: Neurotransmitter release % Efficacy, WT striatal synaptosomes, single component
  Emax: 76 ± 5%
α4β2* nAChRs; read-out: Neurotransmitter release % Efficacy, α5KO striatal synaptosomes
  Emax: 112 ± 9%
α4β2* nAChRs; WT striatal synaptosomes, single component
  EC50: 130 nM
α4β2* nAChRs; α5KO striatal synaptosomes
  EC50: 600 nM
Kinase, Protein, PKA (h)
  Hit: FALSE
Kinase, Protein, PKA (h); substrate Fluorescein-labeled peptide
  Inhibition: -5.00%
[1]
  Hit: FALSE
[1]; [3H]Strychnine
  Inhibition: -7.63%
WT mice
  Antinociceptive effect compared with varenicline: significantly greater than that of varenicline
α6-GFPβ2DMβ3 nAChRs; range over patch-clamp recordings and [3H]-dopamine release assays, read-out: EC50 for α6β2* nAChRs
  EC50: 30 to 60 nM
α6-GFPβ2DMβ3 nAChRs; α6β2β3 transfected in Neuro-2a cells, read-out: Patch clamp EC50
  EC50: 40 ± 10 nM
α4-GFPβ2DM nAChRs
  EC50: 100 ± 20 nM
Adenosine, A1
  Hit: FALSE
Adenosine, A1; [3H]CPX
  Inhibition: 7.85%
Endothelin, ET-A (h)
  Hit: FALSE
Endothelin, ET-A (h); [125I] Endothelin-1
  Inhibition: 8.93%
Angiotensin II, AT1 (h)
  Hit: FALSE
Angiotensin II, AT1 (h); [125I]-(Sar1-Ile8) Angiotensin
  Inhibition: 24.85%
[2]
  Hit: TRUE (TC299423 inhibited >50% of the reference radioligand for two sites)
[2]; [3H]Epibatidine
  Inhibition: 93.33%
[3]
  Hit: TRUE (TC299423 inhibited >50% of the reference radioligand for two sites)
[3]; [3H]Glibenclamide
  Inhibition: 52.12%
[4]
  Hit: FALSE
[5]
  inhibition at 1 µM: 14.5%
[6]
  Hit: FALSE
[6]; [3H]Nisoxetine
  Inhibition: 23.72%
[7]
  Hit: FALSE
[7]; [3H]Flunitrazepam
  Inhibition: 11.84%
Serotonin, 5HT3
  Hit: FALSE
Serotonin, 5HT3; [3H]GR 65630
  Inhibition: 7.50%
α4β2 (α5KO) nAChRs; Cortex
  86Rb+ efflux Efficacy: 169 ± 20%
  EC50: 2400 ± 700 nM
α4β2 (α5KO) nAChRs; Thalamus
  86Rb+ efflux Efficacy: 166 ± 32%
  EC50: 1600 ± 500 nM
Histamine, H1
  Hit: FALSE
Histamine, H1; [3H]Pyrilamine
  Inhibition: 15.56%
Sodium, Site 2
  Hit: FALSE
Sodium, Site 2; [3H]Batrachotoxin A 20-a-Benzo
  Inhibition: 6.91%
